Experimental data as given in patent US9980943B2, “Methods of treating muscular dystrophy” (BOARD OF REGENTS OF THE NEVADA SYSTEM OF HIGHER EDUCATION, …, priority 2013, dated 2018).

Tests used:
Type in all cases: cell-based, mouse
[1] = tested on: β-galactosidase in CMV-LacZ C2C12 myotubes; experiment: CMV-LacZ secondary screen in C2C12 myotubes (β-Gal stabilizing assay); conditions: for CMV-LACZ in Myotubes (β-galactosidase activity relative to DMSO): CMV-LacZ C2C12 myotubes, 96-well format; for CMV-LACZ in Myotubes, signal relative to DMSO: C2C12 CMV-LacZ myotubes, fold relative to DMSO
From the text: In order to determine compounds that acted to stabilize β-gal in myogenic cells, a CMV-LacZ C2C12 cell line was used in a secondary screen. The EGFP gene from the pEGFP (Clontech) vector was replaced by LACZ PCR product with digests of the vector/PCR product performed using EcoRI (NEB) and NotI (NEB) and ligated using T4 DNA Ligase (NEB) following standard procedures to produce the CMV-LACZ vector. The LACZ gene was generated by PCR from the pBK-RSV (Stratagene) vector using primers LACZ EcoRI F- and LACZ NotI R-. The CMV-LACZ vector was then digested with AfIII (NEB) to linearize the construct, which was then transfected in C2C12 myoblasts using Lipofectamine 2000 (Invitrogen) following the manufacturer's instructions. […] Clonal lines were selected and screened for βgal levels using the myoblast FDG assay.
The assays were used the original 96-well format and new dose-response curves for myoblasts (N=3-6 replicates for each data point), myotubes (N=3-6 replicates for data point), and CMV-LacZ secondary assay (N=2 replicates for each data point) using concentrations of 0.5 μM, 1 μM, 5 μM, 10 μM, 20 μM, and 40 μM (Tables 9-16).

[2] = tested on: α7 integrin (LacZ reporter in α7βgal+/− myoblasts); experiment: Myoblast α7+/LacZ integrin FDG assay (Burkin assay in myoblasts, 96-well); conditions: α7+/LacZ myoblasts, 96-well
[3] = tested on: α7 integrin (LacZ reporter in α7+/LacZ myotubes); experiment: Myotube α7 integrin FDG assay (Burkin assay in myotubes, 96-well); conditions: myotubes

| Compound | CMV-LACZ in Myotubes (β-galactosidase activity relative to DMSO) ([1]; 5 uM) | CMV-LACZ in Myotubes (β-galactosidase activity relative to DMSO) ([1]; 10 uM) | CMV-LACZ in Myotubes (β-galactosidase activity relative to DMSO) ([1]; 20 uM) | CMV-LACZ in Myotubes (β-galactosidase activity relative to DMSO) ([1]; 40 uM) | Burkin Assay in Myoblasts, value relative to DMSO ([2]; 0.5 uM) | Burkin Assay in Myoblasts, value relative to DMSO ([2]; 1 uM) | Burkin Assay in Myoblasts, value relative to DMSO ([2]; 5 uM) | Burkin Assay in Myoblasts, value relative to DMSO ([2]; 10 uM) | Burkin Assay in Myoblasts, value relative to DMSO ([2]; 20 uM) | Burkin Assay in Myoblasts, value relative to DMSO ([2]; 40 uM) | Burkin Assay in Myotubes (signal relative to DMSO) ([3]; 0.5 uM) | Burkin Assay in Myotubes (signal relative to DMSO) ([3]; 1 uM) | Burkin Assay in Myotubes (signal relative to DMSO) ([3]; 5 uM) | Burkin Assay in Myotubes (signal relative to DMSO) ([3]; 10 uM) | Burkin Assay in Myotubes (signal relative to DMSO) ([3]; 20 uM) | Burkin Assay in Myotubes (signal relative to DMSO) ([3]; 40 uM) | CMV-LACZ in Myotubes, signal relative to DMSO ([1]; 5 uM) | CMV-LACZ in Myotubes, signal relative to DMSO ([1]; 10 uM) | CMV-LACZ in Myotubes, signal relative to DMSO ([1]; 20 uM) | CMV-LACZ in Myotubes, signal relative to DMSO ([1]; 40 uM) | also measured |
| --- | --- | --- | --- | --- | --- | --- | --- | --- | --- | --- | --- | --- | --- | --- | --- | --- | --- | --- | --- | --- | --- |
| COc1ccc(-c2csc3ncnc(N4CCN(c5ccccc5[N+](=O)[O-])CC4)c23)cc1 [MLS001149811-01] | 0.9566 | 1.048 | 1.122 | 1.65 | 0.6497 | 0.8888 | 1.01 | 1.022 | 1 | 0.6172 | 0.957 | 0.9993 | 0.9434 | 0.9086 | 0.8456 | 0.5432 | – | – | – | – | – |
| Cc1ccc(-c2csc(Nc3ccc(C(=O)O)cc3)[n+]2Cc2ccccc2)cc1 [MLS000374261-01] | 0.8246 | 0.8319 | 0.448 | 0.5036 | 0.7676 | 0.7758 | 0.7248 | 0.7138 | 0.8376 | 0.8321 | 0.8144 | 0.8386 | 1.131 | 0.9288 | 0.423 | 0.449 | – | – | – | – | – |
| O=C(COc1cc2oc(=O)c3c(c2cc1Cl)CCCC3)NCC1CCC(C(=O)O)CC1 (centres unmarked) [MLS001157804-01] | – | – | – | – | 0.879 | 0.9385 | 0.998 | 1.117 | 1.052 | 1.104 | 1.045 | 1.013 | 1.031 | 1.083 | 1.069 | 1.188 | 0.703 | 0.9842 | 1.05 | 1.07 | – |
| CC(=O)c1cccc(NC(=O)C(=O)Nc2cccc3ccccc23)c1 [MLS000765108-01] | 1.177 | 1.099 | 0.9927 | 0.97 | – | – | – | – | – | – | – | – | – | – | – | – | – | – | – | – | fold induction at 0.5 µM ([2]; Mus musculus, Myoblast, 48 h, 0.5 uM, read-out: Burkin Assay in Myoblasts, value relative to DMSO): 1.17; fold induction at 1 µM ([2]; Mus musculus, Myoblast, 48 h, 1 uM, read-out: Burkin Assay in Myoblasts, value relative to DMSO): 1.12; fold induction at 5 µM ([2]; Mus musculus, Myoblast, 48 h, 5 uM, read-out: Burkin Assay in Myoblasts, value relative to DMSO): 1.2; fold induction at 10 µM ([2]; Mus musculus, Myoblast, 48 h, 10 uM, read-out: Burkin Assay in Myoblasts, value relative to DMSO): 1.11; fold induction at 20 µM ([2]; Mus musculus, Myoblast, 48 h, 20 uM, read-out: Burkin Assay in Myoblasts, value relative to DMSO): 1.04; fold induction at 40 µM ([2]; Mus musculus, Myoblast, 48 h, 40 uM, read-out: Burkin Assay in Myoblasts, value relative to DMSO): 1.03; fold induction at 0.5 µM ([3]; Mus musculus, Myotube, 0.5 uM, read-out: Burkin Assay in Myotubes (signal relative to DMSO)): 0.872; fold induction at 1 µM ([3]; Mus musculus, Myotube, 1 uM, read-out: Burkin Assay in Myotubes (signal relative to DMSO)): 1.02; fold induction at 5 µM ([3]; Mus musculus, Myotube, 5 uM, read-out: Burkin Assay in Myotubes (signal relative to DMSO)): 1.06; fold induction at 10 µM ([3]; Mus musculus, Myotube, 10 uM, read-out: Burkin Assay in Myotubes (signal relative to DMSO)): 0.609; fold induction at 20 µM ([3]; Mus musculus, Myotube, 20 uM, read-out: Burkin Assay in Myotubes (signal relative to DMSO)): 0.922; fold induction at 40 µM ([3]; Mus musculus, Myotube, 40 uM, read-out: Burkin Assay in Myotubes (signal relative to DMSO)): 0.707 |
| COc1ccccc1OCC(=O)Nc1cc2c(cc1C(=O)O)OCCCO2 [MLS001177045-01] | 0.9238 | 1.11 | 1.058 | 1.118 | 0.8463 | 1.032 | 1.0025 | 1.0259 | 1.031 | 0.9569 | 1.047 | 0.8145 | 1.024 | 1.0851 | 1.11 | 0.9678 | – | – | – | – | – |
| CCOc1ccc(-n2c(C)c(C(=O)O)c3cc(OC)ccc32)cc1 [MLS001194551-01] | – | – | – | – | 1.096 | 1.205 | 1.115 | 1.297 | 1.176 | 1.392 | 1.0169 | 1.01 | 1.043 | 1.094 | 1.209 | 1.281 | 0.8273 | 0.9459 | 1.047 | 0.7809 | – |
| O=C(O)CCCNC(=O)CCn1nnc2ccccc2c1=O [MLS000806880-01] | – | – | – | – | – | – | – | – | – | – | – | – | – | – | – | – | 0.9654 | 1.13 | 0.9145 | 1.0655 | Burkin Assay in Myoblasts, signal relative to DMSO ([2]; 0.5 uM): 1.097; Burkin Assay in Myoblasts, signal relative to DMSO ([2]; 1 uM): 1.129; Burkin Assay in Myoblasts, signal relative to DMSO ([2]; 5 uM): 1.009; Burkin Assay in Myoblasts, signal relative to DMSO ([2]; 10 uM): 0.9524; Burkin Assay in Myoblasts, signal relative to DMSO ([2]; 20 uM): 0.9957; Burkin Assay in Myoblasts, signal relative to DMSO ([2]; 40 uM): 1.056; Burkin Assay in Myotubes, α7 integrin LacZ reporter signal relative to DMSO ([3]; 0.5 uM): 0.735; Burkin Assay in Myotubes, α7 integrin LacZ reporter signal relative to DMSO ([3]; 1 uM): 0.8731; Burkin Assay in Myotubes, α7 integrin LacZ reporter signal relative to DMSO ([3]; 5 uM): 0.9094; Burkin Assay in Myotubes, α7 integrin LacZ reporter signal relative to DMSO ([3]; 10 uM): 0.996; Burkin Assay in Myotubes, α7 integrin LacZ reporter signal relative to DMSO ([3]; 20 uM): 1.057; Burkin Assay in Myotubes, α7 integrin LacZ reporter signal relative to DMSO ([3]; 40 uM): 0.9353 |
| CCOc1ccc(NC(=O)CN2C(=O)S/C(=C/c3cccn3C)C2=O)cc1 [MLS000702680-01] | – | – | – | – | – | – | – | – | – | – | – | – | – | – | – | – | 1.008 | 1.107 | 1.233 | 1.181 | Burkin Assay in Myoblasts, signal relative to DMSO ([2]; 0.5 uM): 0.845; Burkin Assay in Myoblasts, signal relative to DMSO ([2]; 1 uM): 0.8804; Burkin Assay in Myoblasts, signal relative to DMSO ([2]; 5 uM): 0.8623; Burkin Assay in Myoblasts, signal relative to DMSO ([2]; 10 uM): 0.8908; Burkin Assay in Myoblasts, signal relative to DMSO ([2]; 20 uM): 0.6925; Burkin Assay in Myoblasts, signal relative to DMSO ([2]; 40 uM): 0.6264; Burkin Assay in Myotubes, α7 integrin LacZ reporter signal relative to DMSO ([3]; 0.5 uM): 1.016; Burkin Assay in Myotubes, α7 integrin LacZ reporter signal relative to DMSO ([3]; 1 uM): 0.9196; Burkin Assay in Myotubes, α7 integrin LacZ reporter signal relative to DMSO ([3]; 5 uM): 0.9678; Burkin Assay in Myotubes, α7 integrin LacZ reporter signal relative to DMSO ([3]; 10 uM): 0.7773; Burkin Assay in Myotubes, α7 integrin LacZ reporter signal relative to DMSO ([3]; 20 uM): 0.8074; Burkin Assay in Myotubes, α7 integrin LacZ reporter signal relative to DMSO ([3]; 40 uM): 0.7464 |
